The source of these data is PubChem BioAssay (NCI).

Among the test systems are ACHN renal; CAKI-1 renal; CCRF-CEM leukemia; COLO 205 colon; DU-145 prostate; EKVX NSCLC; HOP-92 NSCLC; KM12 colon; MCF7 breast; MDA-MB-231 breast; MOLT-4 leukemia; NCI-H226 lung; NCI-H522 lung; SF-268 CNS; SNB-19 CNS; SW-620 colon; T-47D breast.
What all share (assay): DTP human tumour cell line panel, 48 h

What is called TGI is the concentration at which net growth stops. High values mean lower sensitivity of the cells, low ones greater sensitivity of the cells.

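Interpolation was linear, between the two tested concentrations surrounding the appropriate level; five concentrations were tested over 48 hours in 96-well plates. TGI marks complete inhibition of growth.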 Some results are limits rather than exact numbers.

For the compound `OCC1CCCCN1Cc1nc2ccc(Cl)cc2[nH]1` (stereo unspecified), the TGI in the assay with ACHN renal, in the assay on CAKI-1 renal, with CCRF-CEM leukemia, with COLO 205 colon, with DU-145 prostate and with EKVX NSCLC was > 100 µM throughout. For the same compound, the TGI with HOP-92 NSCLC, in the assay on KM12 colon, in the assay with MCF7 breast, in the assay on MDA-MB-231 breast, in the assay on MOLT-4 leukemia and with NCI-H226 lung was > 100 µM in each case. Further, the TGI in the assay on NCI-H522 lung, in the assay with SF-268 CNS, in the assay on SNB-19 CNS, in the assay on SW-620 colon and with T-47D breast was > 100 µM in each case.

`Cc1[nH]n(-c2nc(O)c(C)c(=O)[nH]2)c(=O)c1CCO`: the TGI in the assay with ACHN renal, in the assay on CAKI-1 renal, with CCRF-CEM leukemia, in the assay with COLO 205 colon, in the assay with DU-145 prostate and with EKVX NSCLC was > 100 µM each time. The TGI with HOP-92 NSCLC, in the assay with KM12 colon, in the assay on MCF7 breast, in the assay with MDA-MB-231 breast, with MOLT-4 leukemia and in the assay on NCI-H226 lung was > 100 µM each time. Also, the TGI in the assay with NCI-H522 lung, in the assay with SF-268 CNS, in the assay with SNB-19 CNS, in the assay on SW-620 colon and in the assay with T-47D breast was > 100 µM in each case.

In the case of `CCOC(=O)CC[C@@H](NC(=O)c1ccc(NCc2ccc3nc(OC)c(OC)nc3c2)cc1)C(=O)OCC`, the total growth inhibition concentration (TGI) in the assay on ACHN renal is 58.2 µM; in the assay with CAKI-1 renal, > 100 µM; in the assay with CCRF-CEM leukemia, > 100 µM; in the assay with COLO 205 colon, 69.4 µM; in the assay on DU-145 prostate, > 100 µM; in the assay with EKVX NSCLC it was > 100 µM. In addition, the TGI with HOP-92 NSCLC was 36.2 µM; with KM12 colon, > 100 µM; in the assay on MCF7 breast, > 31.6 µM; with MDA-MB-231 breast it was > 100 µM; in the assay on MOLT-4 leukemia, > 31.6 µM; with NCI-H226 lung, > 100 µM. Besides, the TGI is 50.5 µM in the assay on NCI-H522 lung; > 100 µM in the assay with SF-268 CNS; > 100 µM in the assay on SNB-19 CNS; > 100 µM in the assay with SW-620 colon; 58.3 µM with T-47D breast.

With `C=C(Br)C(Cl)(CBr)CCC(Br)C(C)(C)Cl` (stereo unspecified), the TGI with ACHN renal, with CAKI-1 renal, in the assay with CCRF-CEM leukemia, with COLO 205 colon, in the assay on DU-145 prostate and with EKVX NSCLC was > 10 µM in each case. Further, the TGI in the assay with HOP-92 NSCLC, with KM12 colon, in the assay on MCF7 breast, in the assay on MDA-MB-231 breast, with MOLT-4 leukemia and in the assay with NCI-H226 lung was > 10 µM in each case. The TGI in the assay with NCI-H522 lung, in the assay with SF-268 CNS, with SNB-19 CNS, with SW-620 colon and with T-47D breast was > 10 µM each time.

Take `c1ccc2c(Cc3c[nH]c4ccccc34)c[nH]c2c1`: the TGI with ACHN renal was > 100 µM; with CAKI-1 renal, 31.4 µM; in the assay with CCRF-CEM leukemia it was 37.2 µM; with COLO 205 colon, 27.8 µM; in the assay on DU-145 prostate, 34.6 µM; in the assay with EKVX NSCLC, 32.5 µM. The TGI was 35.6 µM with HOP-92 NSCLC; 40.5 µM in the assay on KM12 colon; > 100 µM in the assay on MCF7 breast; 31.5 µM with MDA-MB-231 breast; 61.1 µM in the assay with MOLT-4 leukemia; 22.5 µM with NCI-H226 lung. In addition, the TGI turned out to be 47.9 µM with NCI-H522 lung; 45.7 µM in the assay with SF-268 CNS; 44.4 µM with SNB-19 CNS; 61.6 µM with SW-620 colon; 63.7 µM with T-47D breast.

For `CN(C)CCCNC(=O)CNC(=O)c1cc(NC(=O)c2cc(NC(=O)c3cc(NC(=O)CCNC(=O)c4cc(NC(=O)c5cc(NC(=O)c6nccn6C)cn5C)cn4C)cn3C)cn2C)cn1C`, the concentration for total growth inhibition (TGI) with ACHN renal is > 100 µM; with CAKI-1 renal, > 100 µM; in the assay on CCRF-CEM leukemia, 49.2 µM; in the assay with COLO 205 colon it was > 100 µM; in the assay with DU-145 prostate, > 100 µM; with EKVX NSCLC, > 100 µM. Moreover, the TGI in the assay with HOP-92 NSCLC is > 100 µM; in the assay with KM12 colon it was > 100 µM; with MCF7 breast, > 100 µM; with MDA-MB-231 breast, > 100 µM; in the assay on MOLT-4 leukemia it was 57 µM; in the assay on NCI-H226 lung it was > 100 µM. Also, the TGI in the assay with NCI-H522 lung, in the assay on SF-268 CNS, with SNB-19 CNS, in the assay with SW-620 colon and in the assay with T-47D breast was > 100 µM each time.

Turning to `O=[N+]([O-])/C(C(Cl)=C(Cl)Cl)=C(/Sc1ccccc1)N1CCOCC1`, the TGI in the assay with ACHN renal came out at 15 µM; in the assay on CAKI-1 renal, 13 µM; in the assay on CCRF-CEM leukemia, 4.66 µM; in the assay on COLO 205 colon, 11 µM; in the assay with DU-145 prostate it was 25.2 µM; with EKVX NSCLC, 25.7 µM. For the same compound, the TGI in the assay with HOP-92 NSCLC came out at 6.27 µM; with KM12 colon it was 32.7 µM; in the assay with MCF7 breast, 8.53 µM; in the assay with MDA-MB-231 breast it was 19.8 µM; with MOLT-4 leukemia, 4.61 µM; in the assay on NCI-H226 lung it was 26.5 µM. Also, the TGI in the assay on NCI-H522 lung was found to be 9.36 µM; in the assay with SF-268 CNS, 17 µM; in the assay with SNB-19 CNS it was 20.2 µM; in the assay with SW-620 colon, 6.96 µM; in the assay on T-47D breast it was 16 µM.

On to `COc1ccc(S(=O)Cc2cc(OC)ccc2OC)cc1` (stereo unspecified), for which the TGI in the assay on ACHN renal, in the assay on CAKI-1 renal, in the assay on CCRF-CEM leukemia, with COLO 205 colon, in the assay with DU-145 prostate and in the assay on EKVX NSCLC was > 100 µM throughout. The TGI in the assay with HOP-92 NSCLC, in the assay on KM12 colon, with MCF7 breast, in the assay on MDA-MB-231 breast, in the assay with MOLT-4 leukemia and in the assay with NCI-H226 lung was > 100 µM each time. Also, the TGI in the assay on NCI-H522 lung, with SF-268 CNS, in the assay on SNB-19 CNS, in the assay with SW-620 colon and in the assay with T-47D breast was > 100 µM in each case.
